Laboratory results: patent US12421211B2, “Heterocyclic compounds” (Hoffmann-La Roche Inc., priority 2021, dated 2025)
Where a name gives a salt, the structure may show the parent alone.

test system: Acinetobacter baumannii ATCC17961; experiment: Antimicrobial susceptibility testing: 90% growth inhibitory concentration (IC90) determination; type: cell-based; settings: 90% growth inhibitory concentration, Acinetobacter baumannii ATCC17961, Iso-Sensitest broth, OD 600 nm over 16 h; formic acid; formate; read-out: ATCC 17961 IC90
Description: Assay Procedures Antimicrobial Susceptibility Testing: 90% Growth Inhibitory Concentration (IC90) Determination
The in vitro antimicrobial activity of the compounds was determined according to the following procedure:
The assay used a 10-points Iso-Sensitest broth medium to measure quantitatively the in vitro activity of the compounds against Acinetobacter baumannii ATCC17961.
Stock compounds in DMSO were serially twofold diluted (e.g. range from 50 to 0.097 μM final concentration) in 384 wells microtiter plates and inoculated with 49 μl the bacterial suspension in Iso-Sensitest medium to have a final cell concentration of ˜5×10^(5) CFU/ml in a final volume/well of 50 ul/well. Microtiter plates were incubated at 35±2° C.
Bacterial cell growth was determined with the measurement of optical density at λ=600 nm each 20 minutes over a time course of 16h. Growth inhibition was calculated during the logarithmic growth of the bacterial cells with determination of the concentration inhibiting 50% (IC50) and 90% (IC90) of the growth.
Table 1 provides the 90% growth inhibitory concentrations (IC90) in micromoles per liter of the compounds of present invention obtained against the strain Acinetobacter baumannii ATCC17961.

IC90 | Compound
340 nM | COCCn1ncc(-c2ccc(-c3cnc(C(=O)Nc4ccc(C(=O)N5CCN(C(=O)C6CC[N+](CC(=O)O)(CC7CNC7)CC6)CC5)c(Cl)c4)n3C)c(F)c2F)c1C (stereo not shown) [Example B29, 2-[1-(azetidin-3-ylmethyl)-4-[4-[2-chloro-4-[[5-[2,3-difluoro-4-[1-(2-methoxyethyl)-5-methyl-pyrazol-4-yl]phenyl]-1-methyl-imidazole-2-carbonyl]amino]benzoyl]piperazine-1-carbonyl]piperidin-1-ium-1-yl]acetic acid; formic acid; formate]
190 nM | COCCn1ncc(-c2ccc(-c3cnc(C(=O)Nc4ccc(C(=O)N5CCN(C(=O)C6CC[N+](CC(=O)O)(CC7CNC7)CC6)CC5)c(Cl)c4)n3C)c(F)c2F)c1C (stereo not shown) [Example B30, 2-[1-(azetidin-3-ylmethyl)-4-[4-[2-chloro-4-[[5-[2,3-difluoro-4-[1-(2-methoxyethyl)-5-methyl-pyrazol-4-yl]phenyl]-1-methyl-imidazole-2-carbonyl]amino]benzoyl]piperazine-1-carbonyl]piperidin-1-ium-1-yl]acetic acid; formic acid; formate]

same assay, conditions: 90% growth inhibitory concentration, Acinetobacter baumannii ATCC17961, Iso-Sensitest broth, OD 600 nm over 16 h; read-out: ATCC 17961 IC90

Compound | IC90
COCCn1cc(-c2ccc(-c3cnc(C(=O)Nc4ccc(C(=O)N5CCN(C(=O)C6[C@H]7C[N+](C)(C)C[C@@H]67)CC5)c(Cl)c4)n3C)c(F)c2F)c(C)n1 (stereo partly drawn) [Example B25, N-[3-chloro-4-[4-[(1R,5S)-3,3-dimethyl-3-azoniabicyclo[3.10]hexane-6-carbonyl]piperazine-1-carbonyl]phenyl]-5-[2,3-difluoro-4-[1-(2-methoxyethyl)-3-methyl-pyrazol-4-yl]phenyl]-1-methyl-imidazole-2-carboxamide; formate] | 270 nM

same assay, conditions: Acinetobacter baumannii, ATCC17961, 16 h, 90% growth inhibitory concentration, Acinetobacter baumannii ATCC17961, Iso-Sensitest broth, OD 600 nm over 16 h; read-out: ATCC 17961 IC90

IC90 | Compound
64 nM | COCCn1ncc(-c2ccc(-c3cnc(C(=O)Nc4ccc(C(=O)N5CCN(C(=O)[C@H]6[C@@H]7C[N+](C)(C)C[C@@H]76)CC5)c(Cl)c4)n3C)c(F)c2F)c1C [Example B26, N-[3-chloro-4-[4-[(1R,5S)-3,3-dimethyl-3-azoniabicyclo[3.10]hexane-6-carbonyl]piperazine-1-carbonyl]phenyl]-5-[2,3-difluoro-4-[1-(2-methoxyethyl)-5-methyl-pyrazol-4-yl]phenyl]-1-methyl-imidazole-2-carboxamide; formate]
240 nM | COCCn1cc(-c2ccc(-c3cnc(C(=O)Nc4ccc(C(=O)N5CCN(C(=O)[C@@H]6C[C@@H](O)C[N+]6(C)CCCO)CC5)c(Cl)c4)n3C)c(F)c2F)c(C)n1 (stereo partly drawn) [Example B27, N-[3-chloro-4-[4-[(2S,4R)-4-hydroxy-1-(3-hydroxypropyl)-1-methyl-pyrrolidin-1-ium-2-carbonyl]piperazine-1-carbonyl]phenyl]-5-[2,3-difluoro-4-[1-(2-methoxyethyl)-3-methyl-pyrazol-4-yl]phenyl]-1-methyl-imidazole-2-carboxamide; iodide]
230 nM | COCCn1ncc(-c2ccc(-c3cnc(C(=O)Nc4ccc(C(=O)N5CCN(C(=O)C6CC[N+](CC(=O)O)(CC7CNC7)CC6)CC5)c(Cl)c4)n3C)c(F)c2Cl)c1C (stereo not shown) [Example B28, 2-[1-(azetidin-3-ylmethyl)-4-[4-[2-chloro-4-[[5-[3-chloro-2-fluoro-4-[1-(2-methoxyethyl)-5-methyl-pyrazol-4-yl]phenyl]-1-methyl-imidazole-2-carbonyl]amino]benzoyl]piperazine-1-carbonyl]piperidin-1-ium-1-yl]acetic acid; formate]
200 nM | COCCn1ncc(-c2ccc(-c3cnc(C(=O)Nc4ccc(C(=O)N5CCN(C(=O)C6CC[N+](CC(=O)O)(CC7CNC7)CC6)CC5)c(Cl)c4)n3C)c(Cl)c2F)c1C (stereo not shown) [Example B37, 2-[1-(azetidin-3-ylmethyl)-4-[4-[2-chloro-4-[[5-[2-chloro-3-fluoro-4-[1-(2-methoxyethyl)-5-methyl-pyrazol-4-yl]phenyl]-1-methyl-imidazole-2-carbonyl]amino]benzoyl]piperazine-1-carbonyl]piperidin-1-ium-1-yl]acetic acid; formate]
300 nM | COCCn1ncc(-c2ccc(-c3cnc(C(=O)Nc4ccc(C(=O)N5CCN(C(=O)N6CC[N+](CC(=O)O)(CC7CNC7)CC6)CC5)c(Cl)c4)n3C)c(F)c2F)c1C [Example B38, 2-[1-(azetidin-3-ylmethyl)-4-[4-[2-chloro-4-[[5-[2,3-difluoro-4-[1-(2-methoxyethyl)-5-methyl-pyrazol-4-yl]phenyl]-1-methyl-imidazole-2-carbonyl]amino]benzoyl]piperazine-1-carbonyl]piperazin-1-ium-1-yl]acetic acid; formate]
250 nM | COCCn1ncc(-c2ccc(-c3cnc(C(=O)Nc4ccc(C(=O)N5CCN(C(=O)C6CC[N+](CC(=O)O)(CC7CNC7)CC6)CC5)c(Cl)c4)n3C)c(C)c2F)c1C (stereo not shown) [Example B39, 2-[1-(azetidin-3-ylmethyl)-4-[4-[2-chloro-4-[[5-[3-fluoro-4-[1-(2-methoxyethyl)-5-methyl-pyrazol-4-yl]-2-methyl-phenyl]-1-methyl-imidazole-2-carbonyl]amino]benzoyl]piperazine-1-carbonyl]piperidin-1-ium-1-yl]acetic acid; formate]
1800 nM | COCCn1ncc(-c2cc(C)c(-c3cnc(C(=O)Nc4ccc(C(=O)N5CCN(C(=O)C6CC[N+](CC(=O)O)(CC7CNC7)CC6)CC5)c(Cl)c4)n3C)cc2Cl)c1C (stereo not shown) [Example B40, 2-[1-(azetidin-3-ylmethyl)-4-[4-[2-chloro-4-[[5-[5-chloro-4-[1-(2-methoxyethyl)-5-methyl-pyrazol-4-yl]-2-methyl-phenyl]-1-methyl-imidazole-2-carbonyl]amino]benzoyl]piperazine-1-carbonyl]piperidin-1-ium-1-yl]acetic acid; formate]

same assay, conditions: Acinetobacter baumannii, ATCC17961, 16 h, read-out: ATCC 17961 IC90

Compound | IC90
COCCn1ncc(-c2ccc(-c3cnc(C(=O)Nc4ccc(C(=O)N5CCN(C(=O)C6CCN(CC7C[N+](C)(C)C7)CC6)CC5)c(Cl)c4)n3C)c(F)c2F)c1C [Example B31, N-[3-chloro-4-[4-[1-[(1,1-dimethylazetidin-1-ium-3-yl)methyl]piperidine-4-carbonyl]piperazine-1-carbonyl]phenyl]-5-[2,3-difluoro-4-[1-(2-methoxyethyl)-5-methyl-pyrazol-4-yl]phenyl]-1-methyl-imidazole-2-carboxamide] | 71 nM
COCCn1ncc(-c2ccc(-c3cnc(C(=O)Nc4ccc(C(=O)N5CCN(C(=O)C6CC[N+](C)(CC(F)F)CC6)CC5)c(Cl)c4)n3C)c(F)c2F)c1C (stereo not shown) [Example B32, N-[3-chloro-4-[4-[1-(2,2-difluoroethyl)-1-methyl-piperidin-1-ium-4-carbonyl]piperazine-1-carbonyl]phenyl]-5-[2,3-difluoro-4-[1-(2-methoxyethyl)-5-methyl-pyrazol-4-yl]phenyl]-1-methyl-imidazole-2-carboxamide; 2,2,2-trifluoroacetate] | 58 nM
COCCn1ncc(-c2ccc(-c3cnc(C(=O)Nc4ccc(C(=O)N5CCN(C(=O)C6CCN(CCS(N)(=O)=O)CC6)CC5)c(Cl)c4)n3C)c(F)c2F)c1C [Example B33, N-[3-chloro-4-[4-[1-(2-sulfamoylethyl)piperidine-4-carbonyl]piperazine-1-carbonyl]phenyl]-5-[2,3-difluoro-4-[1-(2-methoxyethyl)-5-methyl-pyrazol-4-yl]phenyl]-1-methyl-imidazole-2-carboxamide] | 820 nM
Cc1n[nH]cc1-c1ccc(-c2cnc(C(=O)Nc3ccc(C(=O)N4CCN(C(=O)C5CCC[N+]5(C)CCO)CC4)c(Cl)c3)n2C)c(F)c1F (stereo not shown) [Example B35, N-[3-chloro-4-[4-[1-(2-hydroxyethyl)-1-methyl-pyrrolidin-1-ium-2-carbonyl]piperazine-1-carbonyl]phenyl]-5-[2,3-difluoro-4-(3-methyl-1H-pyrazol-4-yl)phenyl]-1-methyl-imidazole-2-carboxamide; 2,2,2-trifluoroacetate] | 130 nM
Cc1n[nH]cc1-c1ccc(-c2cnc(C(=O)Nc3ccc(C(=O)N4CCN(C(=O)[C@@H]5C[C@@H](O)C[N+]5(C)CCO)CC4)c(Cl)c3)n2C)c(F)c1F (stereo partly drawn) [Example B36, N-[3-chloro-4-[4-[(2S,4R)-4-hydroxy-1-(2-hydroxyethyl)-1-methyl-pyrrolidin-1-ium-2-carbonyl]piperazine-1-carbonyl]phenyl]-5-[2,3-difluoro-4-(3-methyl-1H-pyrazol-4-yl)phenyl]-1-methyl-imidazole-2-carboxamide; 2,2,2-trifluoroacetate] | 110 nM
COCCn1ncc(-c2ccc(-c3cnc(C(=O)Nc4ccc(C(=O)N5CCN(C(=O)C[N+]6(C)CCC(O)C6)CC5)c(Cl)c4)n3C)c(F)c2F)c1C (stereo not shown) [Example C1, N-[3-chloro-4-[4-[2-(3-hydroxy-1-methyl-pyrrolidin-1-ium-1-yl)acetyl]piperazine-1-carbonyl]phenyl]-5-[2,3-difluoro-4-[1-(2-methoxyethyl)-5-methyl-pyrazol-4-yl]phenyl]-1-methyl-imidazole-2-carboxamide; formate] | 45 nM
